According to patent publication US9040545B2, “Heterocyclyl pyrazolopyrimidine analogues as selective JAK inhibitors” (Cellzome Limited, priority 2010, dated 2015):

Target: T1, JAK3 (Homo sapiens, UniProt P52333)
T1 construct: endogenous in cells; host or cells: mixed Molt4/Ramos lysate (1:2)
T1 sequence (P52333 1-1124): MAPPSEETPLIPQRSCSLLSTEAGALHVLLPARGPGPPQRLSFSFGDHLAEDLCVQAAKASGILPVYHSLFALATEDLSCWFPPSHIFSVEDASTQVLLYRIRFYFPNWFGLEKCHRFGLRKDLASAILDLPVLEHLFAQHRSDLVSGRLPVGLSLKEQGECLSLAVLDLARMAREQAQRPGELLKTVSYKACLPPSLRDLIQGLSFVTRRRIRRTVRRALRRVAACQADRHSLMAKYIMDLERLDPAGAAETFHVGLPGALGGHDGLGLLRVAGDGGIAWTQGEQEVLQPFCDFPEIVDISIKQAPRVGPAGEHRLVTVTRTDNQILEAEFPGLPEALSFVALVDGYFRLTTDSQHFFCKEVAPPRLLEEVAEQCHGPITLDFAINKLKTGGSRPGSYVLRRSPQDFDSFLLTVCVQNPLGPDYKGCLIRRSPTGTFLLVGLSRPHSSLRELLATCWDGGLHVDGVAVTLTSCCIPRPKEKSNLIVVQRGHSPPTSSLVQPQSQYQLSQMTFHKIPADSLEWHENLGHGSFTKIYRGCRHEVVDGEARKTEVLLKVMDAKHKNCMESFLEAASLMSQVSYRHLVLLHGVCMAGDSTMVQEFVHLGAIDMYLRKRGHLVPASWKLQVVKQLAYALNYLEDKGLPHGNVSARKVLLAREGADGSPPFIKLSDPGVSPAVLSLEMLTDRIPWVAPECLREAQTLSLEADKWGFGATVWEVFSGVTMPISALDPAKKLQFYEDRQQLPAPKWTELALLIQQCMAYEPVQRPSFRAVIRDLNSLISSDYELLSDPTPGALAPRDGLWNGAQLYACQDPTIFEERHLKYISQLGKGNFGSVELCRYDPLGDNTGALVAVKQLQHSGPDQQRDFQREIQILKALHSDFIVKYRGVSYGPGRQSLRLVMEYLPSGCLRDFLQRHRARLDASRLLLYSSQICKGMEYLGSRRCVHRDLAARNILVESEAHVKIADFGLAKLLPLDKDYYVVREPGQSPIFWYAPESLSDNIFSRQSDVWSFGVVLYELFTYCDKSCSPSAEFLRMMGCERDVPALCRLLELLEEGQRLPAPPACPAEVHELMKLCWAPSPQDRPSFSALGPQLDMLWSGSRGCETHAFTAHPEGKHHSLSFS
Assay: Kinobeads assay, JAK3
Assay type: binding
Details: mixed Molt4/Ramos lysate, read-out: Inhibition values (IC50) JAK3
Outline: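 IC50 values come from dose-response curves of JAK2/JAK3 captured on immobilized aminopyrido-pyrimidine beads, quantified by antibody dot blot with infrared read-out. Compounds (1:3 series, 9 steps, from 5 mM DMSO stock) competed for 3 h in the cold with mixed Molt4/Ramos lysate (1:2, 10 mg/mL protein).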

Compound | IC50
C[C@@H]1COCCN1c1cccc(Cn2ncc3cnc(Nc4cnn(C)c4)nc32)c1 [Example 113, (R)-N-(1-methyl-1H-pyrazol-4-yl)-1-(3-(3-methylmorpholino)benzyl)-1H-pyrazolo[3,4-d]pyrimidin-6-amine] | < 100 nM
Cn1cc(Nc2ncc3cnn(Cc4cccc(NC5COC5)c4)c3n2)cn1 [Example 114, N-(1-methyl-1H-pyrazol-4-yl)-1-(3-(oxetan-3-ylamino)benzyl)-1H-pyrazolo[3,4-d]pyrimidin-6-amine] | < 100 nM
Cn1cc(Nc2ncc3cnn(Cc4cccc(-c5cnn(C)c5)c4)c3n2)cn1 [Example 115, N-(1-methyl-1H-pyrazol-4-yl)-1-(3-(1-methyl-1H-pyrazol-4-yl)benzyl)-1H-pyrazolo[3,4-d]pyrimidin-6-amine] | < 100 nM
CCn1cc(-c2cccc(Cn3ncc4cnc(Nc5cnn(C)c5)nc43)c2)cn1 [Example 116, 1-(3-(1-ethyl-1H-pyrazol-4-yl)benzyl)-N-(1-methyl-1H-pyrazol-4-yl)-1H-pyrazolo[3,4-d]pyrimidin-6-amine] | < 100 nM
CC(C)n1cc(-c2cccc(Cn3ncc4cnc(Nc5cnn(C)c5)nc43)c2)cn1 [Example 117, 1-(3-(1-isopropyl-1H-pyrazol-4-yl)benzyl)-N-(1-methyl-1H-pyrazol-4-yl)-1H-pyrazolo[3,4-d]pyrimidin-6-amine] | 100 to 1000 nM
Cn1cc(Nc2ncc3cnn(Cc4cccc(-c5cn[nH]c5)c4)c3n2)cn1 [Example 118, 1-(3-(1H-pyrazol-4-yl)benzyl)-N-(1-methyl-1H-pyrazol-4-yl)-1H-pyrazolo[3,4-d]pyrimidin-6-amine] | < 100 nM
CCCn1cc(-c2cccc(Cn3ncc4cnc(Nc5cnn(C)c5)nc43)c2)cn1 [Example 119, N-(1-methyl-1H-pyrazol-4-yl)-1-(3-(1-propyl-1H-pyrazol-4-yl)benzyl)-1H-pyrazolo[3,4-d]pyrimidin-6-amine] | < 100 nM
Cn1cc(Nc2ncc3cnn(Cc4cccc(-c5cnn(CC(N)=O)c5)c4)c3n2)cn1 [Example 120, 2-(4-(3-((6-((1-methyl-1H-pyrazol-4-yl)amino)-1H-pyrazolo[3,4-d]pyrimidin-1-yl)methyl)phenyl)-1H-pyrazol-1-yl)acetamide] | < 100 nM
Cn1cc(Nc2ncc3cnn(Cc4cccc(-c5cnn(CCO)c5)c4)c3n2)cn1 [Example 121, 2-(4-(3-((6-((1-methyl-1H-pyrazol-4-yl)amino)-1H-pyrazolo[3,4-d]pyrimidin-1-yl)methyl)phenyl)-1H-pyrazol-1-yl)ethanol] | < 100 nM
Cn1cc(-c2cccc(Cn3ncc4cnc(Nc5cnn(CCO)c5)nc43)c2)cn1 [Example 122, 2-(4-((1-(3-(1-methyl-1H-pyrazol-4-yl)benzyl)-1H-pyrazolo[3,4-d]pyrimidin-6-yl)amino)-1H-pyrazol-1-yl)ethanol] | < 100 nM
Cn1cc(Nc2ncc3cnn(Cc4cccc(-c5cnn(C)c5)c4F)c3n2)cn1 [Example 123, 1-(2-fluoro-3-(1-methyl-1H-pyrazol-4-yl)benzyl)-N-(1-methyl-1H-pyrazol-4-yl)-1H-pyrazolo[3,4-d]pyrimidin-6-amine] | < 100 nM
Cn1cc(-c2cccc(Cn3ncc4cnc(Nc5cnn(CCO)c5)nc43)c2F)cn1 [Example 124, 2-(4-((1-(2-fluoro-3-(1-methyl-1H-pyrazol-4-yl)benzyl)-1H-pyrazolo[3,4-d]pyrimidin-6-yl)amino)-1H-pyrazol-1-yl)ethanol] | < 100 nM
Cn1cc(Nc2ncc3cnn(Cc4cc(F)cc(-c5cnn(C)c5)c4)c3n2)cn1 [Example 125, 1-(3-fluoro-5-(1-methyl-1H-pyrazol-4-yl)benzyl)-N-(1-methyl-1H-pyrazol-4-yl)-1H-pyrazolo[3,4-d]pyrimidin-6-amine] | < 100 nM
Cn1cc(Nc2ncc3cnn(Cc4cc(-c5cnn(C)c5)cc(F)c4F)c3n2)cn1 [Example 126, 1-(2,3-difluoro-5-(1-methyl-1H-pyrazol-4-yl)benzyl)-N-(1-methyl-1H-pyrazol-4-yl)-1H-pyrazolo[3,4-d]pyrimidin-6-amine] | < 100 nM
Cn1cc(-c2cc(F)c(F)c(Cn3ncc4cnc(Nc5cnn(CCO)c5)nc43)c2)cn1 [Example 127, 2-(4-((1-(2,3-difluoro-5-(1-methyl-1H-pyrazol-4-yl)benzyl)-1H-pyrazolo[3,4-d]pyrimidin-6-yl)amino)-1H-pyrazol-1-yl)ethanol] | < 100 nM

Second part, the compound after the results:

IC50 | Compound
< 100 nM | N#CCCn1cc(Nc2ncc3cnn(Cc4cc(F)cc(N5CCOCC5=O)c4)c3n2)cn1 [Example 107, 3-(4-((1-(3-fluoro-5-(3-oxomorpholino)benzyl)-1H-pyrazolo[3,4-d]pyrimidin-6-yl)amino)-1H-pyrazol-1-yl)propanenitrile]
< 100 nM | Cn1cc(Nc2ncc3cnn(Cc4cccc(N5CCC(=O)CC5)c4)c3n2)cn1 [Example 108, 1-(3-((6-((1-methyl-1H-pyrazol-4-yl)amino)-1H-pyrazolo[3,4-d]pyrimidin-1-yl)methyl)phenyl)piperidin-4-one]
< 100 nM | O=C(Cn1cc(Nc2ncc3cnn(Cc4cc(F)cc(N5CCOCC5=O)c4)c3n2)cn1)N1CCNCC1 [Example 109, 4-(3-fluoro-5-((6-((1-(2-oxo-2-(piperazin-1-yl)ethyl)-1H-pyrazol-4-yl)amino)-1H-pyrazolo[3,4-d]pyrimidin-1-yl)methyl)phenyl)morpholin-3-one]
< 100 nM | Cn1cc(Nc2ncc3cnn(Cc4c(F)c(F)cc(C(=O)N5CCOCC5)c4F)c3n2)cn1 [Example 110, morpholino(2,4,5-trifluoro-3-((6-((1-methyl-1H-pyrazol-4-yl)amino)-1H-pyrazolo[3,4-d]pyrimidin-1-yl)methyl)phenyl)methanone]
< 100 nM | O=C(c1cc(F)c(F)c(Cn2ncc3cnc(Nc4cnn(CCO)c4)nc32)c1F)N1CCOCC1 [Example 111, morpholino(2,4,5-trifluoro-3-((6-((1-(2-hydroxyethyl)-1H-pyrazol-4-yl)amino)-1H-pyrazolo[3,4-d]pyrimidin-1-yl)methyl)phenyl)methanone]
< 100 nM | C[C@H]1COCCN1c1cccc(Cn2ncc3cnc(Nc4cnn(C)c4)nc32)c1 [Example 112, (S)-N-(1-methyl-1H-pyrazol-4-yl)-1-(3-(3-methylmorpholino)benzyl)-1H-pyrazolo[3,4-d]pyrimidin-6-amine]
